The data set is described as follows: method code SF-AS, from DOI: 10.2298/jsc0810967p. The conditions noted are these: pH 7.4.
As for `Cc1cccc(Cn2cnc3cc(C)c(C)cc32)c1`, the logD turned out to be 4.85. With `Cc1cc2ncn(Cc3cccc(F)c3)c2cc1C` the figure was 4.5; with `COc1cccc(Cn2cnc3cc(C)c(C)cc32)c1`, 4.28; with `Cc1cc2ncn(Cc3cccc(Cl)c3)c2cc1C`, 5.05.

For orientation: logD means the decadic logarithm of the distribution of all forms, ionised or not, between an organic phase and buffer at a given pH.

The values above are taken from the SangsterLogP compilation.
